The source made the active and inactive calls. No cut-off for these calls is given here.
Key:
[1] = test system: Chenopodium album; assay: Herbicidal activity against Chenopodium album assessed as injury at 4 kg/ha applied as spray during postemergence measured after 2 weeks; type: functional
[2] = test system: Arabidopsis thaliana; assay: Herbicidal activity against Arabidopsis thaliana seedlings assessed as injury at 31 to 1000 uM; type: functional, organism-based
[3] = test system: Arabidopsis thaliana; assay: Herbicidal activity against Arabidopsis thaliana seedlings assessed as injury at 8 to 16 uM; type: functional, organism-based
[4] = Inhibition of Salmonella enterica subsp. enterica serovar Typhimurium tryptophan synthase alpha subunit; details: read-out: I50
[5] = test system: Amaranthus viridis; assay: Herbicidal activity against Amaranthus viridis assessed as injury at 4 kg/ha applied as spray during postemergence measured after 2 weeks; type: functional
[6] = test system: Arabidopsis thaliana; assay: Herbicidal activity against Arabidopsis thaliana seedlings assessed as injury at 8 to 1000 uM in presence of tryptophan; type: functional, organism-based
[7] = test system: Arabidopsis thaliana; assay: Herbicidal activity against Arabidopsis thaliana seedlings assessed as chlorosis at 125 to 1000 uM; type: functional, organism-based
[8] = test system: Arabidopsis thaliana; assay: Herbicidal activity against Arabidopsis thaliana seedlings assessed as injury at 8 to 1000 uM; type: functional, organism-based
[9] = test system: Arabidopsis thaliana; assay: Herbicidal activity against Arabidopsis thaliana seedlings assessed as chlorosis at 8 to 1000 uM; type: functional, organism-based
[10] = target: T1, Tryptophan synthase alpha /beta chains (Escherichia coli K-12, UniProt P0A877+P0A879); assay: Binding affinity to tryptophan synthase alpha2/beta2 complex in Escherichia coli K-12 by equlibrium dialysis method; type: protein-complex assay
T1 sequence (P0A879 whole entry): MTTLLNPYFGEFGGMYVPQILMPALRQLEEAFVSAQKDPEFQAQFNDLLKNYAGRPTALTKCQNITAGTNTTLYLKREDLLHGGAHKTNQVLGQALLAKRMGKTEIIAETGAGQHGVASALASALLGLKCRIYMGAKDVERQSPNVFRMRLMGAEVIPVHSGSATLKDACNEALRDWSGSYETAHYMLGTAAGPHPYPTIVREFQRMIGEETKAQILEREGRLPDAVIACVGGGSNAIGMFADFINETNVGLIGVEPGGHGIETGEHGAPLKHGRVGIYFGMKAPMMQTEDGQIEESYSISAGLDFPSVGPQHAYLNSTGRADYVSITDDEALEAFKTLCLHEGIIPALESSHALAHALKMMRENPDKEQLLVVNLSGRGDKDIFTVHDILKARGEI
T1 sequence (P0A877 whole entry): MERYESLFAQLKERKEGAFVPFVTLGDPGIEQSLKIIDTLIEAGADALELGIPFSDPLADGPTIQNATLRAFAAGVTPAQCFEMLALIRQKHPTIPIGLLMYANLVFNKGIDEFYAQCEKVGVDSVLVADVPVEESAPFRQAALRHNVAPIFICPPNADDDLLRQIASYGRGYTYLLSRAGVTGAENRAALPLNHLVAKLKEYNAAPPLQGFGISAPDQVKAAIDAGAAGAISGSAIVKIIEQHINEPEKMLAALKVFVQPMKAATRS

Ki [10] | SMILES | Activity [1] | Activity [2] | Activity [3] | IC50 [4] | Activity [5] | Activity [6] | Activity [7] | Activity [8] | Activity [9]
 | O=P(O)(O)CCCCSc1ccccc1O | <=80% | Active | inactive | 130 nM | <=80% | inactive | Active |  | 
 | O=P(O)(O)CCCCc1c[nH]c2ccccc12 |  |  |  | 20000 nM |  |  |  |  | 
 | O=P(O)(O)/C=C/CCSc1ccccc1O | <=80% |  |  | 570 nM | <=80% | inactive |  | Active | Active
 | O=P(O)(O)/C=C/CC[S+]([O-])c1ccccc1O (centres undefined) | <=80% |  |  | 440 nM | <=80% | inactive |  | Active | Active
 | O=P(O)(O)/C=C/CCS(=O)(=O)c1ccccc1O | inactive |  |  | 360 nM | inactive |  |  |  | 
 | Nc1ccccc1SCCCCP(=O)(O)O | <=65% |  |  | 400 nM | <=65% |  |  |  | 
 | O=P(O)(O)CCCc1c[nH]c2ccccc12 |  |  |  | 12500 nM |  |  |  |  | 
15 µM | O=P(O)(O)OCCCc1c[nH]c2ccccc12 |  |  |  | 5000 nM |  |  |  |  | 

— ChEMBL document CHEMBL3045570, “Rational herbicide design by inhibition of tryptophan biosynthesis” (Bioorg Med Chem Lett, 1999)
